Source: patent publication US7192967B1, “Cyclic imide-substituted pyridylalkane, alkene, alkine carboxamides useful as cytostatic and immunosuppressive agents” (Astellas Pharma GmbH, priority 1997, dated 2007)
pIC50: −log10 of the molar value.

Legend:
[1] = tested on: HepG2 cells derived from a human liver carcinoma; assay: Growth inhibition of HepG2 cells, sulforhodamin-B-method, six days; format: cell-based; conditions: six days of substance incubation
Method: HepG2 cells derived from a human liver carcinoma plated at a density of 20,000 cells/ml in 12-well plastic dishes. Cultivation occurred in Richters IMEM-ZO nutrient medium with 5% foetal calf serum (FCS) in a tissue culture incubator with a gas mixture of 5% CO2 and 95% air at a temperature of 37° C. One day after plating, the culture medium was aspirated from the cells and replaced by fresh medium which contained the respective concentrations of the test substances. For the individual concentrations and the controls without test substances, three-fold batches were done for each. Three days after the beginning of treatment, the medium was again renewed with the test compounds. After six days of substance incubation, the test was ended and the protein amount in the individual wells was determined with the sulforhodamin-B-method (according to P. Skehan et al.: New Colorimetric Cytotoxicity Assay for Anticancer-Drug Screening. J. Natl. Cancer Inst. 82: 1107–1112, 1990). The IC50-values (defined as that concentration in which the cell growth was inhibited by 50%) was taken from the dose-response curves and given as a comparative measurement for the activity of the test compounds.

[2] = tested on: lymphocytes from the spleen of a Swiss mouse; assay: Immunosuppressing activity on freshly isolated lymphocytes, vital cells by flow-through cytometer after 2 days; format: cell-based; conditions: vital cells after 2 days
From the text: Many anti-tumor agents have not only a cytotoxic effect on tumor cells, but also on the blood cell system. This leads to a weakening of the immune defence, which can, in turn, be specifically employed to suppress the rejection reaction after an organ transplantation for example. Also use of the main compounds, optionally in combination with other immunological diseases (for example, psoriasis or autoimmune diseases) seems likely. In order to test the possibility for a therapeutic use in illnesses of this type, the substance activity was tested on freshly isolated lymphocytes as follows:
The spleen of a Swiss mouse served as a lymphocyte source. The lymphocyte population was isolated from the spleen cell suspension over a ficoll gradient and taken up in IMEM-ZO culture medium with 0.1% dextran 70,000 and 2% foetal calf serum. […] Subsequently, 10,000 cells per each sample were measured on a flow-through cytometer and the percentage amount of vital cells in the population was determined. By means of the dose-response curves, IC50-values were calculated which were also employed in the following Tables for the characterization of the individual substances: […]

How did the pIC50 [1] turn out when “N-[6-(2,5-dioxo-3,4-diphenyl-2,5-dihydropyrrol-1-yl)-hexyl])-3-pyridin-3-yl-acrylamide [substance 58]” was run?
Its pIC50 is 6.30.

What about the pIC50 [2] of the same substance?
The pIC50 was 7.22.
